Counter-ions that a name gives are not always drawn.
Target: T1, human FLT4 (Homo sapiens, UniProt P35916)
T1 construct: a construct expressing the human FLT4 (789-1207) with an amino terminal GST tag; host or cells: Sf9 insect cells (baculovirus)
Assay: FLT4 kinase assay (DELFIA enzyme inhibition)
Assay type: biochemical
Settings: read-out: FLT4 IC50
Procedure: A GST-kinase fusion protein of 70 KDa was produced using sf9 baculovirus expression system, with a construct expressing the human FLT4 (789-1207) with an amino terminal GST tag. The protein was purified by affinity chromatography using glutathione-agarose followed by separation on a gel filtration column.
FLT4 enzyme activity is determined using a Dissociation Enhanced Lanthanide Fluorescent Immunoassay (DELFIA) with a peptide substrate derived from the MET (Tyr 1253) peptide […] with a core sequence […].
The amount of phosphorylated peptide produced is detected by means of a phospho-Tyrosine specific Europium-labelled antibody using Time-Resolved Fluorescence at Excitation 360-35 nm and Emission 620-35 nm.
Assay reactions are set up in a 25 uL final volume on a 96 well plate. […] The reaction is allowed to proceed for 30 minutes at room temperature before stopping with 100 uL Stop solution comprising of 100 mM EDTA, 1×BSA blocker in TBS (Perbio) and 0.05% Surfact-Amps20 (Perbio).
The stopped reaction is transferred to a black 96-well Neutravidin-coated plate (Perbio) and incubated for 30 minutes to capture the biotinylated peptide substrate. After washing wells 3 times with 200 uL TBS/T buffer, Anti-Phospho-Tyr-100 antibody labelled with Eu—N1 (Perkin Elmer AD0159) is added to all wells for 60 minutes at room temperature. After a repeat washing step, DELFIA Enhancement solution (Perkin Elmer) is added to all wells for 5 minutes and the fluorescence measured on a plate reader Analyst HT (Molecular Devices).
The % inhibition of the activity is calculated and plotted in order to determine the concentration of test compound required to inhibit 50% of the enzyme activity (IC50).

T1 sequence (P35916 789-1207): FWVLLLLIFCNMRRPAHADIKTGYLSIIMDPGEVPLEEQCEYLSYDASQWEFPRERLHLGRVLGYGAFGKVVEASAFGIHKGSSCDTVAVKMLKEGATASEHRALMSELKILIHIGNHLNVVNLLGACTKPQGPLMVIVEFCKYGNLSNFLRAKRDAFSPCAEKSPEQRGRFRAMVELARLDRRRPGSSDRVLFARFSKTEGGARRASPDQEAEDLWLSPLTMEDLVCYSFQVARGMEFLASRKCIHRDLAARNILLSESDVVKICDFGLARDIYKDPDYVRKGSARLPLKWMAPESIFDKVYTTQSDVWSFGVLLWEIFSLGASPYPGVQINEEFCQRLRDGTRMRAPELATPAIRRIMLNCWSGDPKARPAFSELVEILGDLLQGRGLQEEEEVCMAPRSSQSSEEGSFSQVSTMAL

## NC(=O)c1nc(-c2c(F)cccc2F)oc1-c1cccs1 [Example E-1, 2-(2,6-difluorophenyl)-5-(thiophen-2-yl)oxazole-4-carboxamide]
  IC50: < 10 µM

## NC(=O)c1nc(-c2c(F)cccc2F)oc1-c1ccc(CN2CCOCC2)cc1 [Example F-20, 2-(2,6-difluorophenyl)-5-(4-(morpholinomethyl)phenyl)oxazole-4-carboxamide]
  IC50: < 100 µM

## NC(=O)c1nc(-c2c(F)cccc2F)oc1-c1ccccc1 [Example F-1, 2-(2,6-difluorophenyl)-5-phenyloxazole-4-carboxamide]
  IC50: < 10 µM

## COc1ccc(-c2oc(-c3cccs3)nc2C(N)=O)cc1 [Example M-1, 5-(4-methoxyphenyl)-2-(thiophen-2-yl)oxazole-4-carboxamide]
  IC50: < 10 µM

## NC(=O)c1nc(-c2c(F)cccc2F)oc1-c1cccc(CN2CCNCC2)c1 [Example X-3, 2-(2,6-Difluorophenyl)-5-(3-(piperazin-1-ylmethyl)phenyl)oxazole-4-carboxamide formate salt]
  IC50: < 100 µM

## NC(=O)c1nc(-c2c(F)cccc2F)oc1-c1cccc(CN2CCOCC2)c1 [Example X-1, 2-(2,6-Difluorophenyl)-5-(3-(morpholinomethyl)phenyl)oxazole-4-carboxamide]
  IC50: < 100 µM

## NC(=O)c1nc(-c2c(F)cccc2F)oc1-c1ccc(CNC(=O)c2cccs2)cc1 [Example L-3, 2-(2,6-difluorophenyl)-5-(4-((thiophene-2-carboxamido)methyl)phenyl)oxazole-4-carboxamide]
  IC50: < 10 µM

## CS(=O)(=O)c1ccc(-c2oc(-c3c(F)cccc3F)nc2C(N)=O)cc1 [Example F-6, 2-(2,6-difluorophenyl)-5-(4-(methylsulfonyl)phenyl)oxazole-4-carboxamide]
  IC50: < 10 µM

## NC(=O)c1nc(-c2c(F)cccc2F)oc1-c1ccc(CNS(=O)(=O)c2ccccc2)cc1 [Example K-2, 2-(2,6-difluorophenyl)-5-(4-(phenylsulfonamidomethyl)phenyl)oxazole-4-carboxamide]
  IC50: < 10 µM

## NC(=O)c1nc(-c2c(F)cccc2F)oc1-c1ccc(CNS(=O)(=O)c2ccc(F)cc2)cc1 [Example K-1, 2-(2,6-difluorophenyl)-5-(4-((4-fluorophenylsulfonamido)methyl)phenyl)oxazole-4-carboxamide]
  IC50: < 10 µM

## COc1cc(Nc2oc(-c3c(F)cccc3F)nc2C(N)=O)cc(OC)c1OC [Example Q-40, 2-(2,6-difluorophenyl)-5-(3,4,5-trimethoxyphenylamino)oxazole-4-carboxamide]
  IC50: < 10 µM

## COc1ccc(-c2nc(-c3cc(OC)cc(OC)c3)[nH]c2C(N)=O)cc1 [Example A-17, 2-(3,5-dimethoxyphenyl)-4-(4-methoxyphenyl)-1H-imidazole-5-carboxamide]
  IC50: < 100 µM

## NC(=O)c1nc(-c2c(F)cccc2F)oc1-c1ccc2c(c1)OCO2 [Example F-29, 5-(benzo[d][1,3]dioxol-5-yl)-2-(2,6-difluorophenyl)oxazole-4-carboxamide]
  IC50: < 100 µM

## COc1ccc(-c2nc(-c3c(F)cccc3F)oc2C(N)=O)cc1 [Example D-1, 2-(2,6-difluorophenyl)-4-(4-methoxyphenyl)oxazole-5-carboxamide]
  IC50: < 10 µM

## NC(=O)c1nc(-c2c(F)cccc2F)oc1-n1cnc2ccccc21 [Example Q-38, 5-(1H-benzo[d]imidazol-1-yl)-2-(2,6-difluorophenyl)oxazole-4-carboxamide]
  IC50: < 10 µM

## NC(=O)c1nc(-c2c(F)cccc2F)oc1-c1cccc(CN2CCNC(=O)C2)c1 [Example X-2, 2-(2,6-Difluorophenyl)-5-(3-((3-oxopiperazin-1-yl)methyl)phenyl)oxazole-4-carboxamide]
  IC50: < 100 µM

## NC(=O)c1nc(Nc2cn[nH]c2)oc1-c1ccc(N2CCNCC2)cc1 [Example R-19, 2-(1H-pyrazol-4-ylamino)-5-(4-(piperazin-1-yl)phenyl)oxazole-4-carboxamide]
  IC50: < 10 µM

## NC(=O)c1[nH]c(-c2c(F)cccc2F)nc1-c1ccccc1 [Example A-19, 2-(2,6-difluorophenyl)-4-phenyl-1H-imidazole-5-carboxamide]
  IC50: < 100 µM

## COc1ccc(-c2nc(-c3ccc(Br)cc3F)[nH]c2C(N)=O)cc1 [Example A-9, 2-(4-bromo-2-fluorophenyl)-4-(4-methoxyphenyl)-1H-imidazole-5-carboxamide]
  IC50: < 100 µM

## COc1cccc(-c2nc(-c3c(F)cccc3F)[nH]c2C(N)=O)c1 [Example A-20, 2-(2,6-difluorophenyl)-4-(3-methoxyphenyl)-1H-imidazole-5-carboxamide]
  IC50: < 100 µM

## NC(=O)c1nc(-c2c(F)cccc2F)oc1-c1ccc(CNC(=O)c2ccccc2)cc1 [Example L-1, 5-(4-(benzamidomethyl)phenyl)-2-(2,6-difluorophenyl)oxazole-4-carboxamide]
  IC50: < 10 µM

## NC(=O)c1nc(-c2c(F)cccc2F)oc1-c1ccc(N2CCOCC2)cc1 [Example F-4, 2-(2,6-difluorophenyl)-5-(4-morpholinophenyl)oxazole-4-carboxamide]
  IC50: < 10 µM

## COc1ccc(-c2oc(-c3c(F)cccc3F)nc2C(N)=O)cc1OC [Example F-28, 2-(2,6-difluorophenyl)-5-(3,4-dimethoxyphenyl)oxazole-4-carboxamide]
  IC50: < 10 µM

## NC(=O)c1nc(-c2c(F)cccc2F)oc1-c1cccc(C(=O)N2CCOCC2)c1 [Example F-30, 2-(2,6-Difluorophenyl)-5-(3-(morpholine-4-carbonyl)phenyl)oxazole-4-carboxamide]
  IC50: < 10 µM

## COc1ccc(-c2nc(-c3ccccc3)[nH]c2C(N)=O)cc1 [Example A-1, 4-(4-methoxyphenyl)-2-phenyl-1H-imidazole-5-carboxamide]
  IC50: < 100 µM

## NC(=O)c1nc(-c2c(F)cccc2F)oc1-c1ccc(S(N)(=O)=O)cc1 [Example F-21, 5-(4-benzenesulfonamide)-2-(2,6-difluorophenyl)oxazole-4-carboxamide]
  IC50: < 10 µM

## NCC1CN(Cc2cccc(-c3oc(-c4c(F)cccc4F)nc3C(N)=O)c2)CCO1 (centres unmarked) [Example X-4, 5-(3-((2-(Aminomethyl)morpholino)methyl)phenyl)-2-(2,6-difluorophenyl)oxazole-4-carboxamide formate salt]
  IC50: < 100 µM

## NC(=O)c1nc(-c2c(F)cccc2F)oc1Nc1ccc(N)cc1 [Example V-1, 5-(4-aminophenylamino)-2-(2,6-difluorophenyl)oxazole-4-carboxamide]
  IC50: < 10 µM

## COc1ccc(-c2oc(-c3ccsc3)nc2C(N)=O)cc1 [Example M-5, 5-(4-methoxyphenyl)-2-(thiophen-3-yl)oxazole-4-carboxamide]
  IC50: < 10 µM

Source: US9187465B2, “Oxazole tyrosine kinase inhibitors” (Sareum Limited, priority 2007, dated 2015)
